Laboratory results as given in patent US20100234238A1, “METHOD FOR PROFILING KINASE INHIBITORS” (Janssen Pharmaceutica N V, priority 2006, published 2010).

Test system: tyrosine kinase activity in xenograft tumor lysates
Experiment: PAMCHIP96 (140-peptide array) profiling of xenograft tumor lysates in absence or presence of MTKI
Assay type: biochemical
Settings: 5 μM
Procedure: 100 mg of frozen tumor or tissue blocks, or sections, are lysed in 1 ml of M-PER buffer (PIERCE) containing phosphatase and protease inhibitors (HALT, PIERCE). The suspension is mixed using a ULTRA-TURRAX blender (IKA werke), and centrifuged twice for 10 minutes at 12 000×g. Supernatant lysates are filtered through a 0.2 micrometer filter (Anotop 0.2 μm anopore filter; Whatmann). Lysates are flash frozen in liquid nitrogen and stored at −80C.
Just prior to the PAMCHIP experiment, total protein content is quantitated in the lysates and lysates are diluted to 1 mg/ml in a total volume of 200 μl, with M-PER phosphatase and protease inhibitors (HALT, PIERCE). 10 μg of total lysate (corresponding to 10 μl) will be used per well on the PAMCHIP96.
To all 200 μl lysates 10 units of benzonase (Novagen) is added and lysates are further incubated for 30 min on ice and next centrifuged for 10 minutes at 12 000×g. The supernatant is then 1:1 diluted with compound or DMSO diluted to the appropriate concentration in water, and lysates are further incubated exactly 60 min on ice. Meanwhile, a PAMCHIP96 tyrosine peptide chip (PAMGENE) is blocked with 2% BSA (filtered through a 0.2 μm anopore filter; Whatmann) using the standard setting of a PAMSTATION96 (PAMGENE).
The composition of the kinase buffer is as follows: 1×ABL buffer (NEB), 0.5 mg/ml BSA (from 10 mg/ml NEB stock), 100 μM ATP (dissolved and diluted in 1×ABL buffer), 5 μg/ml PY20-FITC (ExAlpha Biologicals, azide-free preparation). A twofold concentrated kinase buffer is prepared chilled on ice, DMSO or compound is added as appropriate, and the solution is added 1:1 to the (compound treated) ice cold lysates, and immediately applied to a tyrosine peptide PAMCHIP96. The assay is run on a PAMSTATION96 according to standard procedures: after loading of the plate, solution is pumped once onto the wells, a first exposure is read (150 mSec) and then a kinetic reading program (reading every 5 min for 150 mSec) is run for 60 min. Lysates are run in 6 technical replicates for each condition; replicates are always applied horizontally next to each other to avoid vertical strip effects of the chip.
The data (spot images) are further quantified and linked to the peptide identities using EVOLVE PAMGRID software (PAMGENE). The quantified data are then fit to a curve using CurveFitHT software (PAMGENE) using the Vinip2 curve fitting algorithm, applied on the first 30 min of the assay; the initial velocity is derived at the first kinetic time point read. All subsequent data analyses were done on initial velocities (Vini) using the software packages Omniviz and R (Ihaka, R. and Gentlemen, R. (1996) R: a language for data analysis and graphics. J. Comput. Graph. Stat., 5, 299-314).
After replacing the Vini's lower than 0.1 by 0.1, all Vini's were log 2-transformed to approach normality. […] This test was done for each peptide separately using a mixed model (Littell, R. C., Milliken, G. A., Stroup, W. W., Wolfinger, R. D. 1996. SAS system for mixed models. Cary, N. C.: SAS Institute Inc.) allowing the incorporation of both technical variation (i.e., the variation across replicates) and biological variation (i.e., the variation among the various responding and non-responding cell lines or tumors). Variation between cell lines or tumors in Vini and in treatment effect on Vini was modeled respectively by random intercepts and random compound effects per cell line or tumor, nested in response status. The difference in compound-induced reduction in Vini between responding and non-responding cell lines or tumors was tested through the interaction between compound treatment and response status, both modeled as fixed effects.

COc1cc2ncnc3c2cc1OCCCCCN(C)Cc1ccc(Br)cc1N3 [MTKI, 4,6-ethanediylidenepyrimido[4,5-b][6,1,12]benzoxadiazacyclopentadecine, 17-bromo-8,9,10,11,12,13,14,19-octahydro-20-methoxy-13-methyl-]
ratio of initial velocity of peptide phosphorylation (A431 xenograft tumor lysate, CDK7_157_169_S164): 0.60 | ratio of initial velocity of peptide phosphorylation (A431 xenograft tumor lysate, EPHB1_921_933_Y928): 0.39 | ratio of initial velocity of peptide phosphorylation (A431 xenograft tumor lysate, FAK1_569_581_Y576/Y577): 0.58 | ratio of initial velocity of peptide phosphorylation (A431 xenograft tumor lysate, GSK3B_209_221_Y216): 0.67 | ratio of initial velocity of peptide phosphorylation (A431 xenograft tumor lysate, K2C6E_53_65_S59): 0.54 | ratio of initial velocity of peptide phosphorylation (A431 xenograft tumor lysate, MBP_259_271_Y261/Y268/S266): 0.60 | ratio of initial velocity of peptide phosphorylation (A431 xenograft tumor lysate, MK10_216_228_T221/Y223): 0.60 | ratio of initial velocity of peptide phosphorylation (A431 xenograft tumor lysate, NCF1_313_325_S315/S320): 0.66 | ratio of initial velocity of peptide phosphorylation (A431 xenograft tumor lysate, NTRK2_699_711_Y702/Y706/Y707): 0.46 | ratio of initial velocity of peptide phosphorylation (A431 xenograft tumor lysate, P2AB_297_309_T304/Y307): 0.65 | ratio of initial velocity of peptide phosphorylation (A431 xenograft tumor lysate, PGFRB_572_584_Y579/Y581): 0.64 | ratio of initial velocity of peptide phosphorylation (A431 xenograft tumor lysate, RAF1_331_343_S337/S338/Y339/Y340): 0.58 | ratio of initial velocity of peptide phosphorylation (A431 xenograft tumor lysate, RB_804_816_S807/S811): 0.53 | ratio of initial velocity of peptide phosphorylation (A431 xenograft tumor lysate, SYN1_2_14_S9): 0.76 | ratio of initial velocity of peptide phosphorylation (A431 xenograft tumor lysate, TYRO3_679_691_Y686): 0.55 | ratio of initial velocity of peptide phosphorylation (A431 xenograft tumor lysate, VEGFR2_944_956_Y951): 0.58 | ratio of initial velocity of peptide phosphorylation (A431 xenograft tumor lysate, VINC_815_827_Y821): 0.52 | ratio of initial velocity of peptide phosphorylation (BT474 xenograft tumor lysate, EPHB1_921_933_Y928): 0.70 | ratio of initial velocity of peptide phosphorylation (BT474 xenograft tumor lysate, FAK1_569_581_Y576/Y577): 0.89 | ratio of initial velocity of peptide phosphorylation (BT474 xenograft tumor lysate, GSK3B_209_221_Y216): 0.89 | ratio of initial velocity of peptide phosphorylation (BT474 xenograft tumor lysate, K2C6E_53_65_S59): 0.80 | ratio of initial velocity of peptide phosphorylation (BT474 xenograft tumor lysate, MBP_259_271_Y261/Y268/S266): 0.85 | ratio of initial velocity of peptide phosphorylation (BT474 xenograft tumor lysate, MK10_216_228_T221/Y223): 0.83 | ratio of initial velocity of peptide phosphorylation (BT474 xenograft tumor lysate, NCF1_313_325_S315/S320): 1.02 | ratio of initial velocity of peptide phosphorylation (BT474 xenograft tumor lysate, NTRK2_699_711_Y702/Y706/Y707): 0.77 | ratio of initial velocity of peptide phosphorylation (BT474 xenograft tumor lysate, P2AB_297_309_T304/Y307): 0.62 | ratio of initial velocity of peptide phosphorylation (BT474 xenograft tumor lysate, PGFRB_572_584_Y579/Y581): 0.75 | ratio of initial velocity of peptide phosphorylation (BT474 xenograft tumor lysate, RAF1_331_343_S337/S338/Y339/Y340): 0.94 | ratio of initial velocity of peptide phosphorylation (BT474 xenograft tumor lysate, RB_804_816_S807/S811): 0.80 | ratio of initial velocity of peptide phosphorylation (BT474 xenograft tumor lysate, SYN1_2_14_S9): 0.96 | ratio of initial velocity of peptide phosphorylation (BT474 xenograft tumor lysate, TYRO3_679_691_Y686): 0.84 | ratio of initial velocity of peptide phosphorylation (BT474 xenograft tumor lysate, VEGFR2_944_956_Y951): 0.84 | ratio of initial velocity of peptide phosphorylation (BT474 xenograft tumor lysate, VINC_815_827_Y821): 0.85 | ratio of initial velocity of peptide phosphorylation (DU145 xenograft tumor lysate, CDK7_157_169_S164): 0.96 | ratio of initial velocity of peptide phosphorylation (DU145 xenograft tumor lysate, EPHB1_921_933_Y928): 0.81 | ratio of initial velocity of peptide phosphorylation (DU145 xenograft tumor lysate, FAK1_569_581_Y576/Y577): 0.72 | ratio of initial velocity of peptide phosphorylation (DU145 xenograft tumor lysate, GSK3B_209_221_Y216): 1.07 | ratio of initial velocity of peptide phosphorylation (DU145 xenograft tumor lysate, K2C6E_53_65_S59): 0.77 | ratio of initial velocity of peptide phosphorylation (DU145 xenograft tumor lysate, MBP_259_271_Y261/Y268/S266): 0.81 | ratio of initial velocity of peptide phosphorylation (DU145 xenograft tumor lysate, MK10_216_228_T221/Y223): 0.77 | ratio of initial velocity of peptide phosphorylation (DU145 xenograft tumor lysate, NCF1_313_325_S315/S320): 0.97 | ratio of initial velocity of peptide phosphorylation (DU145 xenograft tumor lysate, NTRK2_699_711_Y702/Y706/Y707): 0.77 | ratio of initial velocity of peptide phosphorylation (DU145 xenograft tumor lysate, P2AB_297_309_T304/Y307): 0.81 | ratio of initial velocity of peptide phosphorylation (DU145 xenograft tumor lysate, PGFRB_572_584_Y579/Y581): 0.72 | ratio of initial velocity of peptide phosphorylation (DU145 xenograft tumor lysate, RAF1_331_343_S337/S338/Y339/Y340): 0.83 | ratio of initial velocity of peptide phosphorylation (DU145 xenograft tumor lysate, RB_804_816_S807/S811): 0.76 | ratio of initial velocity of peptide phosphorylation (DU145 xenograft tumor lysate, SYN1_2_14_S9): 0.88 | ratio of initial velocity of peptide phosphorylation (DU145 xenograft tumor lysate, TYRO3_679_691_Y686): 0.83 | ratio of initial velocity of peptide phosphorylation (DU145 xenograft tumor lysate, VEGFR2_944_956_Y951): 0.95 | ratio of initial velocity of peptide phosphorylation (DU145 xenograft tumor lysate, VINC_815_827_Y821): 0.84
